What was measured:
Zymoseptoria tritici = assay: Leaf blotch of wheat (SEPTTR) disease control on wheat seedlings; assay type: in vivo; set-up: key to SEPTTR 1DP, HV activity at 100 ppm (% control rating) / SEPTTR 3DC, HV activity at 100 ppm (% control rating) / SEPTTR disease control, 1DP / SEPTTR disease control, 3DC / SEPTTR 1DP disease control rating, HV activity / SEPTTR 3DC disease control rating, HV activity / SEPTTR 3DC, LV activity at 125.1 g/H (% Control rating) / SEPTTR 1DP, LV activity at 125.1 g/H (% Control rating) / SEPTTR 1DP disease control rating, LV activity at 125.1 g/H / SEPTTR 3DC disease control rating, LV activity at 125.1 g/H / SEPTTR 3DC disease control rating, HV activity at 100 ppm / SEPTTR 1DP disease control rating, HV activity at 100 ppm / HV activity at 100 ppm SEPTTR 3DC (disease control rating) / HV activity at 100 ppm SEPTTR 1DP (disease control rating) / LV activity at 125.1 g/H SEPTTR 1DP (disease control rating) / LV activity at 125.1 g/H SEPTTR 3DC (disease control rating): A: > 80; B: ≤ 80; C: Not Tested; D: No Activity Observed in the Reported Assay; conditions: for SEPTTR 1DP disease control rating, LV activity at 125.1 g/H / SEPTTR 3DC disease control rating, LV activity at 125.1 g/H: low volume application; for SEPTTR 1DP disease control rating, LV activity at 125.1 g/H / SEPTTR 1DP disease control rating, HV activity at 100 ppm: 1 day protectant; for SEPTTR 3DC disease control rating, LV activity at 125.1 g/H / SEPTTR 3DC disease control rating, HV activity at 100 ppm: 3 day curative; for SEPTTR 1DP disease control rating, HV activity at 100 ppm / SEPTTR 3DC disease control rating, HV activity at 100 ppm: high volume application
Puccinia triticina = assay: Wheat brown rust (PUCCRT) disease control on wheat seedlings; assay type: in vivo; set-up: key to PUCCRT 3DC, HV activity at 100 ppm (% control rating) / PUCCRT disease control, 3DC / PUCCRT 1DP disease control rating, HV activity / PUCCRT 3DC disease control rating, HV activity / PUCCRT 3DC, LV activity at 125.1 g/H (% Control rating) / PUCCRT 1DP, LV activity at 125.1 g/H (% Control rating) / PUCCRT 3DC disease control rating, LV activity at 125.1 g/H / PUCCRT 1DP disease control rating, LV activity at 125.1 g/H / PUCCRT 3DC disease control rating, HV activity at 100 ppm / PUCCRT 1DP disease control rating, HV activity at 100 ppm / HV activity at 100 ppm PUCCRT 3DC (disease control rating) / LV activity at 125.1 g/H PUCCRT 1DP (disease control rating) / LV activity at 125.1 g/H PUCCRT 3DC (disease control rating): A: > 80; B: ≤ 80; C: Not Tested; D: No Activity Observed in the Reported Assay; conditions: for PUCCRT 1DP disease control rating, LV activity at 125.1 g/H / PUCCRT 3DC disease control rating, LV activity at 125.1 g/H: low volume application; for PUCCRT 1DP disease control rating, LV activity at 125.1 g/H / PUCCRT 1DP disease control rating, HV activity at 100 ppm: 1 day protectant; for PUCCRT 3DC disease control rating, LV activity at 125.1 g/H / PUCCRT 3DC disease control rating, HV activity at 100 ppm: 3 day curative; for PUCCRT 1DP disease control rating, HV activity at 100 ppm / PUCCRT 3DC disease control rating, HV activity at 100 ppm: high volume application

Row | SMILES | SEPTTR 1DP disease control rating, LV activity at 125.1 g/H (Zymoseptoria tritici) | SEPTTR 3DC disease control rating, LV activity at 125.1 g/H (Zymoseptoria tritici) | PUCCRT 1DP disease control rating, LV activity at 125.1 g/H (Puccinia triticina) | PUCCRT 3DC disease control rating, LV activity at 125.1 g/H (Puccinia triticina) | SEPTTR 1DP disease control rating, HV activity at 100 ppm (Zymoseptoria tritici) | SEPTTR 3DC disease control rating, HV activity at 100 ppm (Zymoseptoria tritici) | PUCCRT 1DP disease control rating, HV activity at 100 ppm (Puccinia triticina) | PUCCRT 3DC disease control rating, HV activity at 100 ppm (Puccinia triticina)
1 | COc1ccnc(C(=O)N[C@@H](C)C(=O)O[C@@H](C)[C@H](OCC2CC2)c2cccc(-c3ccccc3)c2)c1OC(C)=O [Cmpd 875] | A (> 80) | A (> 80) | A (> 80) | A (> 80) | – | – | – | –
2 | CC[C@H](OC(=O)[C@H](C)NC(=O)c1nccc(OC)c1OCOC(C)=O)[C@H](Oc1ccccc1)C(C)C [Cmpd 877] | B (≤ 80) | B (≤ 80) | A (> 80) | A (> 80) | – | – | – | –
3 | COc1ccnc(C(=O)N[C@@H](C)C(=O)O[C@@H](C)[C@@H](OCC(C)C)c2ccccc2)c1OC(C)=O [Cmpd 878] | B (≤ 80) | B (≤ 80) | A (> 80) | A (> 80) | – | – | – | –
4 | COc1ccnc(C(=O)N[C@@H](C)C(=O)O[C@@H](C)[C@@H](OCC(C)C)c2ccccc2)c1OCOC(C)=O [Cmpd 880] | B (≤ 80) | B (≤ 80) | A (> 80) | A (> 80) | – | – | – | –
5 | COc1ccnc(C(=O)N[C@@H](C)C(=O)O[C@@H](C)[C@H](OCC2CC2)C2CCCCC2)c1OCOC(C)=O [Cmpd 881] | B (≤ 80) | B (≤ 80) | A (> 80) | A (> 80) | – | – | – | –
6 | COc1ccnc(C(=O)N[C@@H](C)C(=O)O[C@@H](C)[C@H](OCC2CC2)C2CCCCC2)c1OC(C)=O [Cmpd 882] | D | B (≤ 80) | A (> 80) | A (> 80) | – | – | – | –
7 | CCCO[C@@H](c1ccccc1)[C@H](C)OC(=O)[C@H](C)NC(=O)c1nccc(OC)c1OC(C)=O [Cmpd 883] | B (≤ 80) | A (> 80) | A (> 80) | A (> 80) | – | – | – | –
8 | COc1ccnc(C(=O)N[C@@H](C)C(=O)O[C@@H](C)[C@@H](OC)c2ccccc2)c1OC(C)=O [Cmpd 885] | D | B (≤ 80) | D | A (> 80) | – | – | – | –
9 | COc1ccnc(C(=O)N[C@@H](C)C(=O)O[C@@H](C)[C@H](OC)c2ccccc2)c1OC(C)=O [Cmpd 887] | D | A (> 80) | D | A (> 80) | – | – | – | –
10 | COc1ccnc(C(=O)NC(C)C(=O)OC(C)C(Oc2ccccc2)c2ccc(-c3ccccc3)cc2)c1OCOC(C)=O (stereo not shown) [Cmpd 905] | A (> 80) | A (> 80) | A (> 80) | B (≤ 80) | – | – | – | –
11 | COc1ccnc(C(=O)NC(C)C(=O)OC(C)C(Oc2ccccc2)C2CCCCC2)c1OCOC(C)=O (stereo not shown) [Cmpd 907] | B (≤ 80) | B (≤ 80) | A (> 80) | B (≤ 80) | – | – | – | –
12 | COc1ccnc(C(=O)NC(C)C(=O)OC(C)C(Oc2ccc(C)cc2Cl)C2CCCC2)c1OCOC(C)=O (stereo not shown) [Cmpd 913] | D | B (≤ 80) | A (> 80) | B (≤ 80) | – | – | – | –
13 | COc1ccnc(C(=O)NC(C)C(=O)OC(C)C(OCC2CC2)C2CCCC2)c1OCOC(C)=O (stereo not shown) [Cmpd 914] | B (≤ 80) | B (≤ 80) | A (> 80) | A (> 80) | – | – | – | –
14 | COc1ccnc(C(=O)N[C@@H](C)C(=O)O[C@@H](C)[C@H](Oc2ccc(Cl)cc2)C2CCCC2)c1OC(C)=O [Cmpd 921] | A (> 80) | B (≤ 80) | A (> 80) | A (> 80) | – | – | – | –
15 | COc1ccnc(C(=O)N[C@@H](C)C(=O)O[C@@H](C)[C@H](OCC(C)C)C2CCCC2)c1OC(C)=O [Cmpd 922] | A (> 80) | B (≤ 80) | A (> 80) | A (> 80) | – | – | – | –
16 | CCC[C@@H](Oc1ccc(C)cc1Cl)[C@H](C)OC(=O)[C@H](C)NC(=O)c1nccc(OC)c1O [Cmpd 999] | – | – | – | – | B (≤ 80) | B (≤ 80) | A (> 80) | A (> 80)
17 | COc1cc(O[C@H](C2CC2)[C@H](C)OC(=O)[C@H](C)NC(=O)c2nccc(OC)c2O)ccc1Cl [Cmpd 1000] | – | – | – | – | B (≤ 80) | B (≤ 80) | A (> 80) | A (> 80)
18 | COc1cc(O[C@@H]([C@H](C)OC(=O)[C@H](C)NC(=O)c2nccc(OC)c2O)C(C)(C)C)ccc1Cl [Cmpd 1001] | – | – | – | – | B (≤ 80) | D | A (> 80) | A (> 80)
19 | COc1ccnc(C(=O)N[C@@H](C)C(=O)O[C@@H](C)[C@H](OCC2CC2)C2CC2)c1O [Cmpd 1002] | – | – | – | – | B (≤ 80) | B (≤ 80) | A (> 80) | A (> 80)
20 | CCC[C@@H](OCC1CC1)[C@H](C)OC(=O)[C@H](C)NC(=O)c1nccc(OC)c1O [Cmpd 1003] | – | – | – | – | A (> 80) | B (≤ 80) | A (> 80) | A (> 80)
21 | COc1ccnc(C(=O)N[C@@H](C)C(=O)O[C@@H](C)[C@H](OCC2CC2)C(C)(C)C)c1O [Cmpd 1004] | – | – | – | – | B (≤ 80) | B (≤ 80) | A (> 80) | A (> 80)
22 | COc1ccnc(C(=O)N[C@@H](C)C(=O)O[C@@H](C)[C@H](Oc2ccc(C)cc2Cl)C2CC2)c1O [Cmpd 1005] | – | – | – | – | B (≤ 80) | B (≤ 80) | A (> 80) | A (> 80)
23 | COc1ccnc(C(=O)N[C@@H](C)C(=O)O[C@@H](C)[C@H](Oc2ccc(C)cc2Cl)C(C)(C)C)c1O [Cmpd 1006] | – | – | – | – | B (≤ 80) | B (≤ 80) | A (> 80) | A (> 80)
24 | COc1ccnc(C(=O)N[C@@H](C)C(=O)O[C@@H](C)[C@H](Oc2cccc(Cl)c2)C(C)(C)C)c1O [Cmpd 1007] | – | – | – | – | A (> 80) | B (≤ 80) | A (> 80) | A (> 80)
25 | CCC[C@@H](Oc1ccc(Cl)c(OC)c1)[C@H](C)OC(=O)[C@H](C)NC(=O)c1nccc(OC)c1O [Cmpd 1008] | – | – | – | – | B (≤ 80) | B (≤ 80) | B (≤ 80) | B (≤ 80)

Source: patent US20180000085A1, “USE OF PICOLINAMIDE COMPOUNDS WITH FUNGICIDAL ACTIVITY” (DOW AGROSCIENCES LLC, priority 2014, published 2018)
